Numbered stars: 1 amine (or outer) side, 2 acyl side, 3 side chain; on linkers, the order of the positions; unused ones are H or OH. Peptide text beside a SMILES is read from it. γGlu = O=C(O)[C@H](CCC(=O)[*:2])N[*:1]

The text below walks through data of patent US4758551A (priority 1986, dated 1988).

In data set [1] the test system is Male Swiss Webster mice. As to the kind of experiment: Induction of glutathionuria by gamma-glutamyl compounds in mice (urinary glutathione). Format: in vivo. To be noted: for Urinary GSH: subcutaneous, 200 mM neutral solution, dose 4 mM per kilogram of body weight, urine collected for 1 hour. The method, then: Male Swiss Webster mice (20-27 g) were obtained from Taconic Farms (Germantown, N.Y.) and Hilltop Lab Animals (Scottsdale, Pa.).
(§1) The mice were fed ad libitum. Their urinary bladders were emptied by gentle abdominal pressure prior to subcutaneous injection of the gamma-glutamyl amino acids and urine was collected at 15 minute intervals for 1 hour in a tube containing 5 μl of 50% (w/v) 5-sulfosalicyclic acid. Elevated plasma glutathione levels were occasionally found after moderate abdominal pressure was applied to mice. For this reason, studies of urinary and plasma glutathione levels were carried out on different groups of mice.
(§2) Plasma, kidneys and livers were obtained and processed by well known means (see Anderson, M. E. et al, J. Biol. Chem. 255:9530-9533 (1980) and Anderson, M. E. et al, Methods Enzymol. 113:548-555 (1986)) and the concentration of glutathione therein was determined by the GSSG reductase-DTNB recycling assay (see Anderson, M. E. et al, Methods Enzymol. 113:548-555 (1986), Tietze, F., Analytical Biochem. 27:502-522 (1969) and Owens, C. et al, Biochem. J. 94:705-711 (1965)).
The urine samples were treated with 5mM dithiothreitol (pH 7.0) for 1 hour followed by derivatization with 2-vinylpyridine (see Griffith, O. W., Analytical Biochem. 106:207-212 (1980)). The derivatized samples were chromatographed on the amino acid analyzer using lithium citrate buffers (see Benson, J. V. et al, Anal. Biochem. 18:228-240 (1967)). The elution times for the vinylpyridine derivatives of gamma-glutamyl glutathione, gamma-glutamylcysteine, glutathione, cysteinylglycine and cysteine were 120, 163, 165, 220 and 235 minutes, respectively.
*The mice were injected subcutaneously with a 200 mM neutral solution of
the indicated amino acid (dose, 4 mM per kilogram of body weight) or with
an equivalent volume of saline. Urine was collected for 1 hour.

Data set [2] addresses T1, purified rat kidney gamma-glutamyl transpeptidase (Rattus norvegicus, UniProt P07314).
T1 construct: Highly purified rate kidney gamma-glutamyl transpeptidase was prepared by well known means; from tissue; host or cells: rat kidney
To be noted: free amino acids (Tate 1974); cited from earlier work.

The target of data set [3] is T1, purified rat kidney gamma-glutamyl transpeptidase. Put plainly: Gamma-glutamyl transpeptidase activity assay with L-gamma-glutamyl-p-nitroanilide (apparent Khi, Dixon plot). Format: biochemical. Here is the method:
Highly purified rate kidney gamma-glutamyl transpeptidase was prepared by well known means (see Tate, S. S. et al, Methods Enzymol. 113:400-419 (1986)). Bovine and porcine gamma-glutamyl transpeptidase can be obtained from Sigma Chemical Co. (St. Louis, Mo.).
Gamma-glutamyl transpeptidase activity was assayed using L-gamma-glutamyl-p-nitroanilide and the rate of formation of p-nitroaniline at 405 nm at 37° C. was measured (see Orlowski, M. et al, Biochim. Biophys. Acta 73:679-681 (1973)). The 1 ml final volume enzyme reaction mixture employed contained 40 mM Tris-HCl (pH 7.5), 30 or 60 μM L-gamma-glutamyl-p-nitroanilide, 30 or 150 μM gamma-glutamyl amino acid and 0.115 units gamma-glutamyl transpeptidase. Two different concentrations of substrate were employed for kinetic analyses. The reaction was initiated by adding gamma-glutamyl transpeptidase. The absorbance scale was 0.02 or 0.05 to insure that initial rates were obtained. The apparent hydrolysis Ki (Khi) values were determined from a Dixon plot and normalized to the apparent Km value for 6 μM L-gamma-glutamyl-p-nitroanilide (see Thompson, G. A. et al, Biochem. Biophys, Res. Commun. 71:32-36 (1976)).
The values for the apparent Khi for a number of gamma-glutamyl amino acids using purified rat kidney gamma-glutamyl transpeptidase are shown in the Figure. […]

Data set [4] is described as follows: In vivo conversion of the administered gamma-glutamyl compound. The source says: The values for the apparent Khi for a number of gamma-glutamyl amino acids using purified rat kidney gamma-glutamyl transpeptidase are shown in the Figure. These values were plotted against the urinary glutathione obtained in the in vivo studies and a fairly close correlation was found. That is, the apparent affinity of gamma-glutamyl transpeptidase or gamma-glutamyl amino acid substrates varies over about a 6-fold range. In contrast, the affinity for the corresponding free amino acids varies over a range of several hundred (see Tate, S. S. et al, J. Biol. Chem. 249:7593-7602 (1974)).

For another data set, the system named is mice. To be noted: cited from earlier work.
The subject of data set [5] is Male Swiss Webster mice. The settings on record: cited from earlier work.
Data set [6] concerns Male Swiss Webster mice. As to the kind of experiment: Glutathione levels of kidney, liver and blood plasma of mice after administration. Format: in vivo. The settings on record: experimental period 1 hour. Here is the method: as §1, §2
Data set [7] relates to Male Swiss Webster mice. The settings on record: similar protocol (Griffith 1979); cited from earlier work.
Setting [8] is: mice, after administration of the hydrazide.

T1 sequence (P07314 1-379 limits assumed): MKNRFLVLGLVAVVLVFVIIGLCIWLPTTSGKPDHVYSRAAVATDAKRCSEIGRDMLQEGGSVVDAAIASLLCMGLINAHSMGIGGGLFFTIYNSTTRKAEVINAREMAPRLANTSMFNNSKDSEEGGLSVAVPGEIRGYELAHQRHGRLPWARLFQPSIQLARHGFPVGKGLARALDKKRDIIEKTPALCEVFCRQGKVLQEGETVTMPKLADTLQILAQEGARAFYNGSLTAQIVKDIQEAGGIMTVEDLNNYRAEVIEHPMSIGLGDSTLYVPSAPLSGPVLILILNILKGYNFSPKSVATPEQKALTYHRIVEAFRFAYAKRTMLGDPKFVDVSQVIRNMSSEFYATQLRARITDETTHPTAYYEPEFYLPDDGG
T1 sequence (P07314 380-568 limits assumed): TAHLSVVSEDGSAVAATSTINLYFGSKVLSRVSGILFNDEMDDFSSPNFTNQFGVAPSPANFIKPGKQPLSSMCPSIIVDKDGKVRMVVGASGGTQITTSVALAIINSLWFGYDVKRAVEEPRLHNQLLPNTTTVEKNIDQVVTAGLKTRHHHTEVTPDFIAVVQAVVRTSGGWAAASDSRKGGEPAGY

Take `N[C@@H](CCC(=O)O)C(=O)N[C@@H](Cc1ccc(O)cc1)C(=O)O` [L-glu-L-tyr, reference compound] (H-Glu-Tyr-OH): in the data set with Male Swiss Webster mice [1], the “Urinary GSH” value was below 0.03 mM.

Regarding `CC(C)[C@H](NC(=O)CC[C@H](N)C(=O)O)C(=O)O` [L-Gamma-Glu-- L-Val, L-Gamma-Glu-L-Val], the “Urinary GSH” value in the data set on Male Swiss Webster mice [1] was 0.49 ± 0.25 mM.

As for `CC(C)C[C@H](NC(=O)CC[C@H](N)C(=O)O)C(=O)O` [L-Gamma-Glu-- L-Leu, L-Gamma-Glu-L-Leu], in the data set on Male Swiss Webster mice [1], the “Urinary GSH” value is recorded as 0.60 ± 0.07 mM.

For `CSC[C@H](NC(=O)CC[C@H](N)C(=O)O)C(=O)NCC(=O)O` [S--Methyl glutathione], the “Urinary GSH” value with Male Swiss Webster mice [1] is listed as 5.21 ± 1.30 mM.

In the case of `CSCC[C@H](NC(=O)CC[C@@H](N)C(=O)O)C(=O)O` [D-Gamma-Glu-- L-Met, D-Gamma-Glu-L-Met], in the data set with Male Swiss Webster mice [1], the “Urinary GSH” value turned out to be 0.18 ± 0.05 mM.

Regarding `N[C@@H](CCC(=O)N[C@@H](CSSC[C@H](NC(=O)CC[C@H](N)C(=O)O)C(=O)O)C(=O)O)C(=O)O` [L-Gamma-Glu-- L-(Cys)2, L-Gamma-Glu-L-(Cys)2], the “Urinary GSH” value with Male Swiss Webster mice [1] turned out to be 2.63 ± 0.33 mM.

Take `N[C@@H](CCC(=O)N[C@@H](Cc1ccc(O)cc1)C(=O)O)C(=O)O` [L-Gamma-Glu-- L-Tyr, L-Gamma-Glu-L-Tyr]: the “Urinary GSH” value in the data set with Male Swiss Webster mice [1] is given as 3.19 ± 0.80 mM.

On to `CSCC[C@H](NC(=O)CC[C@H](N)C(=O)O)C(=O)O` [L-Gamma-Glu-- L-Met, L-Gamma-Glu-L-Met], for which the “Urinary GSH” value with Male Swiss Webster mice [1] came to 8.54 ± 0.99 mM.

In the case of `NCCCC[C@H](N)C(=O)O` [lysine], in data set [2], the “acceptor substrate of gamma-glutamyl transpeptidase” value is recorded as “extremely poor acceptor substrates”.

With `CC(C)[C@H](N)C(=O)O` [valine], the “acceptor substrate of gamma-glutamyl transpeptidase” value in data set [2] is “extremely poor acceptor substrates”.

As to `CC[C@H](C)[C@H](NC(=O)CC[C@H](N)C(=O)O)C(=O)O` [L-Gamma-Glu-- L-Ile, L-Gamma-Glu-L-Ile], the “Urinary GSH” value in the data set with Male Swiss Webster mice [1] is reported as 1.00 ± 0.10 mM.

Regarding `NC(=O)CC[C@H](NC(=O)CC[C@H](N)C(=O)O)C(=O)O` [L-Gamma-Glu-- L-Gln, L-Gamma-Glu-L-Gln], in the data set with Male Swiss Webster mice [1], the “Urinary GSH” value amounted to 1.17 ± 0.55 mM.

Turning to `N[C@@H](CSSC[C@H](N)C(=O)O)C(=O)O` [L-Cystine, reference compound], in the data set with Male Swiss Webster mice [1], the “Urinary GSH” value is below 0.03 mM.

In the case of `NC(=O)CC[C@H](N)C(=O)O` [L-glutamine, L-(and D-)glutamine, reference compound], in the data set on Male Swiss Webster mice [1], the “induction of glutathionuria” value was “ineffective” and the “Urinary GSH” value is listed as below 0.03 mM. Moreover, the “affinity for / interaction with gamma-glutamyl transpeptidase” value in data set [3] is “very poor gamma-glutamyl substrate”.

`N[C@@H](CCC(=O)N[C@@H](CC(=O)O)C(=O)O)C(=O)O` [L-Gamma-Glu-- L-Asp, L-Gamma-Glu-L-Asp]: the “Urinary GSH” value in the data set with Male Swiss Webster mice [1] was found to be 0.26 ± 0.10 mM.

As to `C[C@H](NC(=O)[C@@H](N)CCC(=O)O)C(=O)O` [L-glu-L-ala, reference compound] (H-Glu-Ala-OH), the “Urinary GSH” value in the data set with Male Swiss Webster mice [1] was below 0.03 mM.

Consider `C[C@H](NC(=O)CC[C@H](NC(=O)CC[C@H](N)C(=O)O)C(=O)O)C(=O)O` [L-Gamma-Glu-- L-Gamma-Glu-- L-Ala, L-Gamma-Glu-L-Gamma-Glu-L-Ala], for which, in the data set with Male Swiss Webster mice [1], the “induction of glutathionuria” value is listed as “induced glutathionuria” and the “Urinary GSH” value is listed as 5.07 ± 0.73 mM. Also, the “in vivo conversion” value in data set [4] is reported as “rapidly converted in vivo to gamma-glutamyl alanine”.

On to `N[C@@H](CCC(=O)NCC(=O)O)C(=O)O` [L-Gamma-Glu-- Gly, L-Gamma-Glu-Gly], for which the “Urinary GSH” value in the data set on Male Swiss Webster mice [1] came out at 2.67 ± 0.40 mM.

With `CC[C@H](NC(=O)CC[C@H](N)C(=O)O)C(=O)O`, the “Urinary GSH” value with Male Swiss Webster mice [1] is listed as 1.52 ± 0.38 mM.

Regarding `CC(C)[C@H](NC(=O)[C@@H](N)CCC(=O)O)C(=O)O` [L-glu-L-val, reference compound] (H-Glu-Val-OH), the “Urinary GSH” value in the data set with Male Swiss Webster mice [1] is reported as below 0.03 mM.

Take `N[C@@H](CCC(=O)NCC(=O)NCC(=O)O)C(=O)O` [L-Gamma-Glu-- Gly--Gly, L-Gamma-Glu-Gly-Gly] (γGlu-Gly-Gly-OH): in the data set on Male Swiss Webster mice [1], the “gamma-glutamyl glutathione in the urine” value is listed as “significant amounts” and the “Urinary GSH” value is 3.29 ± 1.16 mM. Further, in the data set on Male Swiss Webster mice [1] (vinylpyridine derivative, amino acid analyzer), the “urinary gamma-glutamyl cysteine relative to urinary glutathione” value is listed as “about 10%”.

Turning to `C[C@H](NC(=O)CC[C@H](N)C(=O)O)C(=O)O` [L-Gamma-Glu-- L-Ala, L-Gamma-Glu-L-Ala], in the data set on Male Swiss Webster mice [1], the “gamma-glutamyl glutathione in the urine” value is “significant amounts” and the “Urinary GSH” value is 5.69 ± 1.26 mM. In addition, in data set [3], the “affinity for / interaction with gamma-glutamyl transpeptidase” value was “much higher affinity”.

Regarding `N[C@@H](CCC(=O)N[C@@H](CCC(=O)O)C(=O)O)C(=O)O` [L-Gamma-Glu-- L-Glu, L-Gamma-Glu-L-Glu], the “Urinary GSH” value in the data set on Male Swiss Webster mice [1] is 5.28 ± 1.05 mM.

As to `NNc1ccccc1C(=O)O` [o-carboxyphenylhydrazine], in the data set on mice, the fatal dose entry is on record as “more than 2 mM per kilogram of body weight”.

Regarding `N[C@@H](CCCCNC(=O)CC[C@H](N)C(=O)O)C(=O)O` [L-Gamma-- ε-L-Lys, L-Gamma-Glu-ε-L-Lys], the “Urinary GSH” value in the data set on Male Swiss Webster mice [1] is 0.77 ± 0.17 mM.

For `N[C@@H](CCC(=O)N[C@@H](CS)C(=O)O)C(=O)O` [gamma-glutamylcysteine], the “effect on kidney glutathione levels” value in the data set on Male Swiss Webster mice [5] (Anderson 1983) is listed as “increases”. For the same compound, the “effect on liver glutathione levels” value in the data set with Male Swiss Webster mice [6] is “does not affect”.

Consider `NC(CCC(=O)NNc1ccccc1C(=O)O)C(=O)O` [L-gamma-glutamyl-(o-carboxy)phenylhydrazide], for which, in the data set on Male Swiss Webster mice [5] (Griffith 1979), the “plasma glutathione levels” value is listed as “marked increases”. For the same compound, in the data set on Male Swiss Webster mice [5] (setting [8]), the “decrease in kidney glutathione levels” value is given as around 30% and the “decrease in liver glutathione levels” value is listed as around 13%. Also, the “glutathione found in the urine” value with Male Swiss Webster mice [7] was 3.6 to 5.6 mM.

Consider `N[C@@H](CCC(=O)N[C@@H](CSSC[C@H](NC(=O)CC[C@H](N)C(=O)O)C(=O)O)C(=O)O)C(=O)O` [(L-Gamma-Glu-- L-Cys)2, (L-gamma-Glu-L-Cys)2], for which the figures for the “Urinary GSH” value in the data set with Male Swiss Webster mice [1] and in the data set with Male Swiss Webster mice [1] (listed as gamma-glutamylcysteine disulfide) were 5.77 ± 1.05 mM and “about 6 mM”, respectively.

In the case of `NCCCC[C@H](NC(=O)[C@@H](N)CCC(=O)O)C(=O)O` [L-glu-L-(α )-lys, reference compound] (H-Glu-Lys-OH), the “Urinary GSH” value in the data set on Male Swiss Webster mice [1] is listed as below 0.03 mM.
